Test results from PMC10427817, “Bioactivities of β-mangostin and its new glycoside derivatives synthesized by enzymatic reactions” (Royal Society Open Science, 2023).
Values after ≈ are worked out from the molar mass of the structure shown. Where two headings read alike, the source gives them in different places.

Columns and labels:
[1] = system: HeLa cervical cancer cells; parameters: method as in PMID 26781450; details: cited from earlier work
Salmonella enterica = assay: Anti-microbial activity assay, S. enterica; format: cell-based
Procedure: (§1) Bacterial and fungal strains (Bacillus subtilis, Staphylococcus aureus, Lactobacillus fermentum, Escherichia coli, Pseudomonas aeruginosa, Salmonella enterica and Candida albicans) were activated on TSA (Tryptic Soy Agar) and SA (Sabouraud–4% dextrose agar) media, respectively. Before the experiment, the microbial strains were grown in the corresponding liquid media at a concentration of approximately 5 × 10^5 CFU ml^−1 for bacteria and 1 × 10^3 CFU ml^−1 for fungi. The microbial suspension (190 µl) was mixed with 10 µl of the test sample, which was serially diluted twofold, and the microplate was incubated at 37°C for 16–24 h.

[2] = system: S. aureus (MRSA; methicillin-resistant strain); parameters: method as in PMID 22494050; details: cited from earlier work
Candida albicans = assay: Anti-microbial activity assay, C. albicans; format: cell-based
Procedure: as §1

Lactobacillus fermentum = assay: Anti-microbial activity assay, L. fermentum; format: cell-based; details: L. fermentum
Procedure: as §1

Pseudomonas aeruginosa = assay: Anti-microbial activity assay, P. aeruginosa; format: cell-based
Procedure: as §1

MCF-7 breast cancer = assay: MTT cytotoxicity assay, MCF-7; format: cell-based, human; details: Homo sapiens, MCF7, MCF-7 cell line, 72 h, mean ± s.d., three replicates
Procedure: (§2) The cytotoxic activities against the cancer cell lines KB epidermal carcinoma, A549 lung cancer, HepG2 liver cancer and MCF-7 breast cancer, as well as the healthy cell line HEK293 embryonic kidney cells, were determined using the 3-(4,5-dimethylthiazol-2-yl)-2,5-diphenyltetrazolium bromide (MTT) assay. Briefly, cell lines were grown into log phase at 37°C, 5% CO2 in DMEM-Dulbecco's modified Eagle's medium and 10% fetal bovine serum. A concentration of 1 × 10^4–3 × 10^4 cells ml^−1 was prepared depending on the cell line used for the experiment by adding 10 µl of the sample and 190 µl of the cell suspension, followed by incubation under standard conditions. After 72 h of culture, 10 µl of MTT (5 mg ml^−1) was added and incubated for 4 h. Dimethyl sulfoxide (100 µl) was added to dissolve formazan crystals and the density was measured at 540 nm using a BioTek spectrophotometer. The inhibition of cell growth was expressed as IC50 (the half-maximal inhibitory concentration) value.

C6 cells = system: C6 cells; parameters: method as in PMID 34896543; details: C6 glioma cells; read-out: IC50, cell survival; cited from earlier work
AChE = AChE (Homo sapiens, UniProt P22303); assay: Acetylcholinesterase inhibitory activity assay; format: biochemical; details: AChE 0.25 IU ml^−1, ATCI/DTNB, mean ± s.d., three replicates
Procedure: For the assay, acetylthiocholine iodide (ATCI) was used as a substrate for the reaction and 5,5′-dithiobis-(2-nitrobenzoic acid) (DTNB) was used to measure AChE activity. The reaction (200 µl) on a 96-well plate was performed by mixing Tris–Cl buffer (pH 8.0), tested sample in a twofold serial dilution, AChE (0.25 IU ml^−1) and incubating at 25°C, 15 min before adding 2.4 mM DTNB and 2.4 mM ATCI.

Escherichia coli = assay: Anti-microbial activity assay, E. coli; format: cell-based
Procedure: as §1

T89G cells = system: T89G cells; parameters: method as in PMID 34896543; details: T89G glioma cells; read-out: IC50, cell survival; cited from earlier work
HepG2 liver cancer = assay: MTT cytotoxicity assay, HepG2; format: cell-based, human; details: Homo sapiens, HepG2 cell line, 72 h, mean ± s.d., three replicates
Procedure: as §2, with “value. Ellipticine was used as reference.” for “value.”

α-glucosidase = target: T1, α-glucosidase (Saccharomyces cerevisiae, UniProt P53341); assay: Alpha-glucosidase inhibitory assay; format: biochemical
T1 construct: purchased Sigma
Procedure: Beta-mangostin and α-mangostin were purchased from Chengdu Biopurify Phytochemicals, Ltd. Recombinant Escherichia coli (BL21 (DE3)) strains were kindly provided by Prof. Jae Kyung Sohng, Sun Moon University, Korea. The cell lines and microorganisms were derived from the American Type Culture Collection (ATCC). α-Glucosidase (CAS no. 900-42-7, Sigma) was from Saccharomyces cerevisiae. All chemicals were of analytical grade and available.
The α-glucosidase inhibitory activity assay was conducted using a reaction mixture containing phosphate buffer (100 mM; pH 6.8), p-nitrophenyl-α-D-glucopyranoside (pNPG) (2.5 mM) and samples at various concentrations. The reactions were initiated by adding α-glucosidase (0.2 U ml^−1), incubated at 37°C for 30 min and quenched by adding Na2CO3 (50 mM). The absorbance of the reaction was determined using a BioTek instrument at a wavelength of 410 nm (A).

Staphylococcus aureus = assay: Anti-microbial activity assay, S. aureus; format: cell-based; details: S. aureus
Procedure: as §1

U251 cells = system: U251 cells; parameters: method as in PMID 34896543; details: U251 glioma cells; read-out: IC50, cell survival; cited from earlier work
[3] = system: hepatocellular carcinoma cell lines (Huh-7, SK-Hep-1, HA22T/VGH cell lines); details: cited from earlier work
[4] = system: Enterococcus (VRE; vancomycin-resistant strain); parameters: method as in PMID 22494050; details: cited from earlier work

T1 sequence (P53341 whole entry): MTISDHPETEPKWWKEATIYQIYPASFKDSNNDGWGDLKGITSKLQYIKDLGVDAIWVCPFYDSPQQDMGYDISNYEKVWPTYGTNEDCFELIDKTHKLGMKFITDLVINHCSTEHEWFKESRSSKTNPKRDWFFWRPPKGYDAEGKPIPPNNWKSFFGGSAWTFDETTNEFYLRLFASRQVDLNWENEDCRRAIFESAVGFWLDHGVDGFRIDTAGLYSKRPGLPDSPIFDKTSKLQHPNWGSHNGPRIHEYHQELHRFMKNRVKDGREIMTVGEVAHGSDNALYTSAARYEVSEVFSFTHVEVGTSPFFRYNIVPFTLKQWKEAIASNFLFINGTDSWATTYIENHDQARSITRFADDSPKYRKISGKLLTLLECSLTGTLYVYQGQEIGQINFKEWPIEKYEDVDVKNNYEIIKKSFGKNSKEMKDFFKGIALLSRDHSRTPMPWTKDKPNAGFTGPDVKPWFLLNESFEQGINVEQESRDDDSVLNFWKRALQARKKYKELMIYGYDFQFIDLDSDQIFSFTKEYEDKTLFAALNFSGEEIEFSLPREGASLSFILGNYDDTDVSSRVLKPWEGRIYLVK
Chain of AChE (P22303 32-614): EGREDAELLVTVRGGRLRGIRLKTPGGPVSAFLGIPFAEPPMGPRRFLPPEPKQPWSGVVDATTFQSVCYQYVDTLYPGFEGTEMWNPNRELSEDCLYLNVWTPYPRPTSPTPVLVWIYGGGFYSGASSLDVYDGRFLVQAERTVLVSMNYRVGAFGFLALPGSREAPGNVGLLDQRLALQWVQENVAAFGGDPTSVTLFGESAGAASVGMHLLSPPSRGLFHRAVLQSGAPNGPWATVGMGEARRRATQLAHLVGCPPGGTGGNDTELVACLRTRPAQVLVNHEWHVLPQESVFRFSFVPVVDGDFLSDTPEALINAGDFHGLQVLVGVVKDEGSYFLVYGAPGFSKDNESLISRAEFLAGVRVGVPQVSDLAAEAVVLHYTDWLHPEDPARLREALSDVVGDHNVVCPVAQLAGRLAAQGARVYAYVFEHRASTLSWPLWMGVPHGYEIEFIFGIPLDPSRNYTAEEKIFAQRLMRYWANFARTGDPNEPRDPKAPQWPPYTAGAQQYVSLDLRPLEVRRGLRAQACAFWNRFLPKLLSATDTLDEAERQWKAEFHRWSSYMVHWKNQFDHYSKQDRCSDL

## COc1cc2oc3cc(O)c(OC)c(CC=C(C)C)c3c(=O)c2c(O)c1CC=C(C)C [β-mangostin]
[1]
  IC50: 27.2 µM
Salmonella enterica
  IC50: > 32 µg/mL
  MIC: > 32 µg/mL
[2]
  MIC: > 200 µg/mL
Candida albicans
  MIC: greater than 32 μg ml^−1
Candida albicans; Candida albicans, read-out: IC50
  IC50: > 32 µg/mL
Candida albicans; Candida albicans, read-out: MIC
  MIC: > 32 µg/mL
Lactobacillus fermentum; read-out: IC50
  IC50: 0.18 ± 0.01 µg/mL (≈ 0.424 µM)
Lactobacillus fermentum; read-out: MIC
  MIC: 0.5 µg/mL (≈ 1.18 µM)
Pseudomonas aeruginosa
  MIC: greater than 32 μg ml^−1
Pseudomonas aeruginosa; Pseudomonas aeruginosa
  IC50: > 32 µg/mL
Pseudomonas aeruginosa; Pseudomonas aeruginosa, read-out: MIC
  MIC: > 32 µg/mL
MCF-7 breast cancer
  IC50: 18 ± 8.1 µM
C6 cells
  IC50: 4.8 µM
AChE
  IC50: 2.17 ± 0.18 µM
Escherichia coli
  MIC: greater than 32 μg ml^−1
Escherichia coli; Escherichia coli
  IC50: > 32 µg/mL
Escherichia coli; Escherichia coli, read-out: MIC
  MIC: > 32 µg/mL
T89G cells
  IC50: 10.3 µM
HepG2 liver cancer
  IC50: 18.9 ± 7.6 µM
α-glucosidase
  IC50: 27.6 ± 4.6 µM
α-glucosidase; compared with the positive control acarbose
  inhibitory potency ratio: 7.55
Staphylococcus aureus; read-out: IC50
  IC50: 1.24 ± 0.05 µg/mL (≈ 2.92 µM)
Staphylococcus aureus; read-out: MIC
  MIC: > 32 µg/mL
U251 cells
  IC50: 5.8 µM
[3]
  cytotoxicity or cell cycle suppression: did not cause cytotoxicity or cell cycle suppression
[4]
  MIC: > 200 µg/mL
